pIC50: −log10 of the molar value.
Test system: not listed separately
Experiment: Pharmacokinetic evaluation in mice
Type: in vivo, male ICR mice
Conditions: iv, 2 mg/kg
Procedure: The compounds were administered by intravenous injection at a dose of 2 mg/kg and oral gavage at a dose of 10 mg/kg (0.5% CMC-Na suspension). 15 male ICR mice were selected for each group, and each mouse was subjected to blood collection at 3 discrete time points, with 3 mice per time point. The time points of sampling were as follows: before the administration, and at 5 min, 15 min, 30 min, 1 h, 3 h, 5 h, 8 h, 12 h and 24 h after the administration. 80 μL of blood was collected from the eye sockets or the hearts of the mice at each of the time points after the administration. All whole blood samples were collected in tubes containing EDTA K2 and centrifuged (1500-1600 rmp) at 4° C. for 10 min to isolate plasma, which was then stored in a refrigerator at −90 to −60° C. for sample analysis. The compound concentration in the plasma was determined by liquid chromatography-tandem mass spectrometry, and the corresponding pharmacokinetic parameters were obtained according to a plasma concentration-time curve.

Cl [L/h/kg] | Cmax [µg/mL] | Tmax [h] | Vss [L/kg] | t1/2 [h] | Structure (SMILES)
0.14 | 2.557 | 1 | 0.782 | 4.31 | C=C(F)C(=O)N1CC2(CCN(c3nc(OC4CCN(CCOC)CC4)nc4c(OCC(F)(F)F)c(-c5c(C)ccc6[nH]ncc56)c(C5CC5)cc34)CC2)C1 [Compound 1]
0.099 | 3.21 | 0.083 | 0.481 | 4.02 | C=CC(=O)N1CC2(CCN(c3nc(N4CC(N(C)C)C4)nc4c(OCC(F)(F)F)c(-c5c(C)ccc6[nH]ncc56)c(C=C)cc34)CC2)C1 [Compound C, reference compound]

Same assay, conditions: po 10 mg/kg vs iv 2 mg/kg

F [%] | Structure (SMILES)
29.0 | C=C(F)C(=O)N1CC2(CCN(c3nc(OC4CCN(CCOC)CC4)nc4c(OCC(F)(F)F)c(-c5c(C)ccc6[nH]ncc56)c(C5CC5)cc34)CC2)C1 [Compound 1]
24.6 | C=CC(=O)N1CC2(CCN(c3nc(N4CC(N(C)C)C4)nc4c(OCC(F)(F)F)c(-c5c(C)ccc6[nH]ncc56)c(C=C)cc34)CC2)C1 [Compound C, reference compound]

Same assay, conditions: po, 10 mg/kg, 0.5% CMC-Na suspension

Cmax [µg/mL] | Tmax [h] | t1/2 [h] | Structure (SMILES)
1.543 | 4 | 6.94 | C=C(F)C(=O)N1CC2(CCN(c3nc(OC4CCN(CCOC)CC4)nc4c(OCC(F)(F)F)c(-c5c(C)ccc6[nH]ncc56)c(C5CC5)cc34)CC2)C1 [Compound 1]
3.11 | 0.5 | 3.38 | C=CC(=O)N1CC2(CCN(c3nc(N4CC(N(C)C)C4)nc4c(OCC(F)(F)F)c(-c5c(C)ccc6[nH]ncc56)c(C=C)cc34)CC2)C1 [Compound C, reference compound]

Test system: pERK level in H358 cells
Experiment: pERK and ERK protein content assay in H358 cells (ELISA)
Type: cell-based
Conditions: compound 1 μM, 24 h, pERK/ERK ratio compared with DMSO group
How it was run: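 H358 cells grown one day, then treated 24 h with compound at 1 μM. pERK and ERK in lysates measured by ELISA; pERK/ERK ratio expressed as percent inhibition versus DMSO.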

Structure (SMILES) | Inhibition rate (%) of pERK level
C=C(F)C(=O)N1CC2(CCN(c3nc(OC4CCN(CCOC)CC4)nc4c(OCC(F)(F)F)c(-c5c(C)ccc6[nH]ncc56)c(C5CC5)cc34)CC2)C1 [Compound 1] | +++ (+++ indicates an inhibition rate greater than 90%.)
C=CC(=O)N1CC2(CCN(c3nc(N4CC(N(C)C)C4)nc4c(OCC(F)(F)F)c(-c5c(C)ccc6[nH]ncc56)c(C=C)cc34)CC2)C1 [Compound C, reference compound] | +++ (+++ indicates an inhibition rate greater than 90%.)

Test system: H358 cells
Experiment: Antiproliferative activity against H358 cells (Cell Titer Glow, ultra-low attachment plate)
Type: cell-based
Conditions: 96-well ultra-low attachment plate, three days after addition of compound, Cell Titer Glow
Procedure: 2500 H358 cells were seeded in a 96-well ultra-low attachment plate (corning, 7007). After one day of growth, a serially diluted compound (a maximum concentration of 5 μM, 5-fold dilution, a total of five doses) was added. Three days after the addition of the compound, Cell Titer Glow (Promega, G9681) was added to evaluate pellet growth, and the IC50 value was calculated.

pIC50 | Structure (SMILES)
> 6.52 | C=C(F)C(=O)N1CC2(CCN(c3nc(OC4CCN(CCOC)CC4)nc4c(OCC(F)(F)F)c(-c5c(C)ccc6[nH]ncc56)c(C5CC5)cc34)CC2)C1 [Compound 1]
> 6.52 | C=CC(=O)N1CC2(CCN(c3nc(N4CC(N(C)C)C4)nc4c(OCC(F)(F)F)c(-c5c(C)ccc6[nH]ncc56)c(C=C)cc34)CC2)C1 [Compound C, reference compound]

Same assay, conditions: three days after addition of compound

pIC50 | Structure (SMILES)
8.29 | C=CC(=O)N1CC2(CCN(c3nc(N4CC(N(C)C)C4)nc4c(OCC(F)(F)F)c(-c5c(C)ccc6[nH]ncc56)c(C=C)cc34)CC2)C1 [Compound C, reference compound]

Test system: Human pancreatic cancer Mia PaCa-2 cells
Experiment: Antitumor activity on graft tumors of human pancreatic cancer Mia PaCa-2 in nude mice
Type: in vivo
Conditions: Mia PaCa-2 graft tumors in nude mice, 10 mg/kg intragastric, qd*21
Procedure: Human pancreatic cancer Mia PaCa-2 cells were cultured conventionally in 1640 medium containing 10% fetal bovine serum in a 37° C./5% CO2 incubator. After passage, the cells were collected when they reached the desired amount. 1×10^7 Mia PaCa-2 cells were injected into the left dorsal side of each nude mouse, and the animals were randomly grouped for administration after tumors grew to 150 mm3. The groups are as follows: 1) a solvent control group of 8 mice; and 2) compound 1 group, compound 2 group, compound 5 group, compound 31 group, compound 131 group, compound 142 group, compound 171 group, compound B group and compound C group, with 8 mice per group. Mice in the solvent control group were subjected to intragastric administration of 0.5% CMC-Na once daily; mice in compound 1 group, compound 2 group, compound 5 group, compound 31 group, compound 131 group, compound 142 group, compound 171 group, compound B group and compound C group were subjected to intragastric administration of a suspension of a compound in 0.5% CMC-Na once daily. On Tuesday and Thursday each week, tumor volumes and body weight of the mice were measured, and the nude mice were sacrificed on day 21 of administration.

Structure (SMILES) | Anti-tumor effect (regression) [% regression]
C=C(F)C(=O)N1CC2(CCN(c3nc(OC4CCN(CCOC)CC4)nc4c(OCC(F)(F)F)c(-c5c(C)ccc6[nH]ncc56)c(C5CC5)cc34)CC2)C1 [Compound 1] | 39
C=CC(=O)N1CC2(CCN(c3nc(N4CC(N(C)C)C4)nc4c(OCC(F)(F)F)c(-c5c(C)ccc6[nH]ncc56)c(C=C)cc34)CC2)C1 [Compound C, reference compound] | 8

Reference: US12479843B2, “Spiro ring-containing quinazoline compounds” (WIGEN BIOMEDICINE TECHNOLOGY (SHANGHAI) CO., LTD., priority 2019, dated 2025)
